Among the data in US7998978B2 (Pfizer Inc., priority 2006, dated 2011) are inhibition values, retold here.

The experiment concerns the target T1, JNK1α1 (Homo sapiens, UniProt P45983).
T1 construct: catalytic domain containing amino acids 1-364 and N-terminal hexahistidine tag; hexahistidine (His6) (N); made in house; host or cells: E. coli BL21 (DE3)
Put plainly: Coupled spectrophotometric (PK/LDH) JNK1α1 assay: % inhibition and Ki determination. It counts as biochemical. As to conditions: read-out: % Inhibition JNK-1. Summed up: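 Initial rates were taken from the absorbance decrease at 340 nm at 30° C. Ki was fitted with a tight-binding model over 11 concentrations (top 100 μM); single-point inhibition was tested at 1 or 10 μM.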

T1 sequence (P45983 1-364): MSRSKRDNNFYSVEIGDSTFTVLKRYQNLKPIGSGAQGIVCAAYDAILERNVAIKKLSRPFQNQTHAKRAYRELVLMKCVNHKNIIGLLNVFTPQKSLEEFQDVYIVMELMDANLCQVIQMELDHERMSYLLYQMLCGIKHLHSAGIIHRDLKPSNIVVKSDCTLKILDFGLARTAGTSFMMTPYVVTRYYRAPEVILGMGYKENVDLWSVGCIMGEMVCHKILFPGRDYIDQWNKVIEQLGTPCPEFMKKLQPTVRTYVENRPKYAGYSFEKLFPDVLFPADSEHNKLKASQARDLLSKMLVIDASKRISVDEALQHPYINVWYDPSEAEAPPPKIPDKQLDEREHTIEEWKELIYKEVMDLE

The inhibition is how much of the control response was suppressed. On to `O=C(NCc1noc(-c2ccccc2)n1)c1cccc2cnc(N[C@H]3CC[C@H](O)CC3)nc12` [Example 501, 2-[(trans-4-hydroxycyclohexyl)amino]-N-[(5-phenyl-1,2,4-oxadiazol-3-yl)methyl]quinazoline-8-carboxamide], for which the inhibition at 10 µM amounted to 60%.

For the compound `CC(C)c1nc(CNC(=O)c2cccc3cnc(N[C@H]4CC[C@H](O)CC4)nc23)no1` [Example 502, 2-[(trans-4-hydroxycyclohexyl)amino]-N-[(5-isopropyl-1,2,4-oxadiazol-3-yl)methyl]quinazoline-8-carboxamide], the inhibition at 10 µM turned out to be 50%.

Take `CC(C)(C)N1CC(CNC(=O)c2cccc3cnc(N[C@H]4CC[C@H](O)CC4)nc23)CC1=O` (stereo partly drawn) [Example 503, N-[(1-tert-butyl-5-oxopyrrolidin-3-yl)methyl]-2-[(trans-4-hydroxycyclohexyl)amino]quinazoline-8-carboxamide]: the inhibition at 10 µM came out at 54%.

For the compound `CC(C)(C)C(=O)N1CCC(NC(=O)c2cccc3cnc(N[C@H]4CC[C@H](O)CC4)nc23)C1` (stereo partly drawn) [Example 504, N-[1-(2,2-dimethylpropanoyl)pyrrolidin-3-yl]-2-[(trans-4-hydroxycyclohexyl)amino]quinazoline-8-carboxamide], the inhibition at 10 µM is 40%.

`CC(=O)N1CCC(CNC(=O)c2cccc3cnc(N[C@H]4CC[C@H](O)CC4)nc23)CC1` [Example 505, N-[(1-acetylpiperidin-4-yl)methyl]-2-[(trans-4-hydroxycyclohexyl)amino]quinazoline-8-carboxamide]: the inhibition at 10 µM worked out at 58%.

With `COC[C@H]1CCC[C@H]1NC(=O)c1cccc2cnc(N[C@H]3CC[C@H](O)CC3)nc12` [Example 506, 2-[(trans-4-hydroxycyclohexyl)amino]-N-[(1R,2S)-2-(methoxymethyl)cyclopentyl]quinazoline-8-carboxamide], the inhibition at 1 µM turned out to be 37%.

Turning to `O=C(NCCn1cccn1)c1cccc2cnc(N[C@H]3CC[C@H](O)CC3)nc12` [Example 507, 2-[(trans-4-hydroxycyclohexyl)amino]-N-[2-(1H-pyrazol-1-yl)ethyl]quinazoline-8-carboxamide], the inhibition at 1 µM was 25%.

Take `CCN1CC(CNC(=O)c2cccc3cnc(N[C@H]4CC[C@H](O)CC4)nc23)CC1=O` (stereo partly drawn) [Example 508, N-[(1-ethyl-5-oxopyrrolidin-3-yl)methyl]-2-[(trans-4-hydroxycyclohexyl)amino]quinazoline-8-carboxamide]: the inhibition at 1 µM is 21%.

As to `CN(C)C(=O)CNC(=O)c1cccc2cnc(N[C@H]3CC[C@H](O)CC3)nc12` [Example 509, N-[2-(dimethylamino)-2-oxoethyl]-2-[(trans-4-hydroxycyclohexyl)amino]quinazoline-8-carboxamide], the inhibition at 10 µM came to 49%.

In the case of `Cc1nnc(C(C)NC(=O)c2cccc3cnc(N[C@H]4CC[C@H](O)CC4)nc23)[nH]1` (stereo partly drawn) [Example 510, 2-[(trans-4-hydroxycyclohexyl)amino]-N-[1-(5-methyl-4H-1,2,4-triazol-3-yl)ethyl]quinazoline-8-carboxamide], the inhibition at 10 µM turned out to be 25%.

For `Cc1nnc(CNC(=O)c2cccc3cnc(N[C@H]4CC[C@H](O)CC4)nc23)[nH]1` [Example 511, 2-[(trans-4-hydroxycyclohexyl)amino]-N-[(5-methyl-4H-1,2,4-triazol-3-yl)methyl]quinazoline-8-carboxamide], the inhibition at 10 µM was determined as 47%.

As for `Cc1cc(C)nc(CNC(=O)c2cccc3cnc(N[C@H]4CC[C@H](O)CC4)nc23)n1` [Example 512, N-[(4,6-dimethylpyrimidin-2-yl)methyl]-2-[(trans-4-hydroxycyclohexyl)amino]quinazoline-8-carboxamide], the inhibition at 10 µM was determined as 31%.

Turning to `O=C(NCc1nc(-c2ccccc2)no1)c1cccc2cnc(N[C@H]3CC[C@H](O)CC3)nc12` [Example 513, 2-[(trans-4-hydroxycyclohexyl)amino]-N-[(3-phenyl-1,2,4-oxadiazol-5-yl)methyl]quinazoline-8-carboxamide], the inhibition at 1 µM worked out at 21%.

For `Cc1nnc(CNC(=O)c2cccc3cnc(N[C@H]4CC[C@H](O)CC4)nc23)o1` [Example 514, 2-[(trans-4-hydroxycyclohexyl)amino]-N-[(5-methyl-1,3,4-oxadiazol-2-yl)methyl]quinazoline-8-carboxamide], the inhibition at 1 µM is 11%.

`O=C(NCCC1CCCCO1)c1cccc2cnc(N[C@H]3CC[C@H](O)CC3)nc12` (stereo partly drawn) [Example 515, 2-[(trans-4-hydroxycyclohexyl)amino]-N-[2-(tetrahydro-2H-pyran-2-yl)ethyl]quinazoline-8-carboxamide]: the inhibition at 1 µM is 19%.

Turning to `CNC(=O)[C@H](C)NC(=O)c1cccc2cnc(N[C@H]3CC[C@H](O)CC3)nc12` [Example 516, 2-[(trans-4-hydroxycyclohexyl)amino]-N-[(1S)-1-methyl-2-(methylamino)-2-oxoethyl]quinazoline-8-carboxamide], the inhibition at 1 µM was 26%.

For the compound `O=C(N[C@H]1CCN(C(=O)c2ccccc2)C1)c1cccc2cnc(N[C@H]3CC[C@H](O)CC3)nc12` [Example 517, N-(1-benzoylpyrrolidin-3-yl)-2-[(trans-4-hydroxycyclohexyl)amino]quinazoline-8-carboxamide], the inhibition at 1 µM is 16%.

As for `O=C(NCc1ccc(C2CC2)cn1)c1cccc2cnc(N[C@H]3CC[C@H](O)CC3)nc12` [Example 518, N-[(5-cyclopropylpyridin-2-yl)methyl]-2-[(trans-4-hydroxycyclohexyl)amino]quinazoline-8-carboxamide], the inhibition at 10 µM was found to be 60%.

For the compound `CC(=O)N1CCC(NC(=O)c2cccc3cnc(N[C@H]4CC[C@H](O)CC4)nc23)CC1` [Example 519, N-(1-acetylpiperidin-4-yl)-2-[(trans-4-hydroxycyclohexyl)amino]quinazoline-8-carboxamide], the inhibition at 1 µM was 9%.

In the case of `Cn1c(CCNC(=O)c2cccc3cnc(N[C@H]4CC[C@H](O)CC4)nc23)nc2cccnc21` [Example 520, 2-[(trans-4-hydroxycyclohexyl)amino]-N-[2-(3-methyl-3H-imidazo[4,5-b]pyridin-2-yl)ethyl]quinazoline-8-carboxamide], the inhibition at 1 µM was 10%.

Turning to `Cc1cc(CNC(=O)c2cccc3cnc(N[C@H]4CC[C@H](O)CC4)nc23)nn1C` [Example 521, N-[(1,5-dimethyl-1H-pyrazol-3-yl)methyl]-2-[(trans-4-hydroxycyclohexyl)amino]quinazoline-8-carboxamide], the inhibition at 1 µM stood at 49%.

Turning to `Cc1nnc(CCNC(=O)c2cccc3cnc(N[C@H]4CC[C@H](O)CC4)nc23)o1` [Example 522, 2-[(trans-4-hydroxycyclohexyl)amino]-N-[2-(5-methyl-1,3,4-oxadiazol-2-yl)ethyl]quinazoline-8-carboxamide], the inhibition at 1 µM was 18%.

Consider `Cc1noc(CCNC(=O)c2cccc3cnc(N[C@H]4CC[C@H](O)CC4)nc23)n1` [Example 523, 2-[(trans-4-hydroxycyclohexyl)amino]-N-[2-(3-methyl-1,2,4-oxadiazol-5-yl)ethyl]quinazoline-8-carboxamide], for which the inhibition at 10 µM amounted to 44%.

For `Cc1ccn2cc(CCNC(=O)c3cccc4cnc(N[C@H]5CC[C@H](O)CC5)nc34)nc2n1` [Example 524, 2-[(trans-4-hydroxycyclohexyl)amino]-N-[2-(7-methylimidazo[1,2-a]pyrimidin-2-yl)ethyl]quinazoline-8-carboxamide], the inhibition at 10 µM stood at 47%.

As to `CN1CC(CNC(=O)c2cccc3cnc(N[C@H]4CC[C@H](O)CC4)nc23)OCC1=O` (stereo partly drawn) [Example 525, 2-[(trans-4-hydroxycyclohexyl)amino]-N-[(4-methyl-5-oxomorpholin-2-yl)methyl]quinazoline-8-carboxamide], the inhibition at 10 µM is 41%.

As to `O=C(NCC1CN(C2CCC2)C(=O)CO1)c1cccc2cnc(N[C@H]3CC[C@H](O)CC3)nc12` (stereo partly drawn) [Example 526, N-[(4-cyclobutyl-5-oxomorpholin-2-yl)methyl]-2-[(trans-4-hydroxycyclohexyl)amino]quinazoline-8-carboxamide], the inhibition at 10 µM is 41%.

`Cc1noc(C(NC(=O)c2cccc3cnc(N[C@H]4CC[C@H](O)CC4)nc23)c2ccccc2)n1` (stereo partly drawn) [Example 527, 2-[(trans-4-hydroxycyclohexyl)amino]-N-[(3-methyl-1,2,4-oxadiazol-5-yl)(phenyl)methyl]quinazoline-8-carboxamide]: the inhibition at 1 µM is 34%.

With `O=C(NCCn1ccccc1=O)c1cccc2cnc(N[C@H]3CC[C@H](O)CC3)nc12` [Example 528, 2-[(trans-4-hydroxycyclohexyl)amino]-N-[2-(2-oxopyridin-1(2H)-yl)ethyl]quinazoline-8-carboxamide], the inhibition at 1 µM was 26%.

With `CCN1CC(CNC(=O)c2cccc3cnc(N[C@H]4CC[C@H](O)CC4)nc23)OCC1=O` (stereo partly drawn) [Example 529, N-[(4-ethyl-5-oxomorpholin-2-yl)methyl]-2-[(trans-4-hydroxycyclohexyl)amino]quinazoline-8-carboxamide], the inhibition at 1 µM turned out to be 16%.

As for `Cc1noc(CNC(=O)c2cccc3cnc(N[C@H]4CC[C@H](O)CC4)nc23)n1` [Example 530, 2-[(trans-4-hydroxycyclohexyl)amino]-N-[(3-methyl-1,2,4-oxadiazol-5-yl)methyl]quinazoline-8-carboxamide], the inhibition at 1 µM was 26%.

For the compound `Cc1cccn(CCNC(=O)c2cccc3cnc(N[C@H]4CC[C@H](O)CC4)nc23)c1=O` [Example 531, 2-[(trans-4-hydroxycyclohexyl)amino]-N-[2-(3-methyl-2-oxopyridin-1(2H)-yl)ethyl]quinazoline-8-carboxamide], the inhibition at 1 µM worked out at 26%.
